Key:
Assay in all cases: relative viability (nuclei count vs DMSO), 5 days (fraction); higher = more cells survive
ChaGo-K-1 = tested on: ChaGo-K-1
How it was run: (§1)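 Five library-drug doses in √10 steps were combined with a fixed anchor-drug dose, or a single drug was given alone, by pin tool to lung cancer cell lines in 1536-well plates the day after seeding. Nuclei were stained and counted after 5 days. Relative viability is the nuclei count in treated wells over that in vehicle wells, taken as the median of duplicate plates.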

SK-MES-1 = tested on: SK-MES-1
How it was run: as §1

H3255 = tested on: H3255
How it was run: as §1

COR-L23 = tested on: COR-L23
How it was run: as §1

NCI-H2023 = tested on: NCI-H2023
How it was run: as §1

NCI-H2087 = tested on: NCI-H2087
How it was run: as §1

NCI-H838 = tested on: NCI-H838
How it was run: as §1

NCI-H1944 = tested on: NCI-H1944
How it was run: as §1

EMC-BAC-2 = tested on: EMC-BAC-2
How it was run: as §1

LU99A = tested on: LU99A
How it was run: as §1

HCC-827 = tested on: HCC-827
How it was run: as §1

NCI-H2405 = tested on: NCI-H2405
How it was run: as §1

EPLC-272H = tested on: EPLC-272H
How it was run: as §1

LCLC-103H = tested on: LCLC-103H
How it was run: as §1

NCI-H1651 = tested on: NCI-H1651
How it was run: as §1

NCI-H650 = tested on: NCI-H650
How it was run: as §1

HCC-44 = tested on: HCC-44
How it was run: as §1

NCI-H1395 = tested on: NCI-H1395
How it was run: as §1

NCI-H520 = tested on: NCI-H520
How it was run: as §1

NCI-H1793 = tested on: NCI-H1793
How it was run: as §1

NCI-H2085 = tested on: NCI-H2085
How it was run: as §1

Compound: CC(=O)O[C@@]12CO[C@@H]1C[C@H](O)[C@@]1(C)C(=O)[C@H](O)C3=C(C)[C@@H](OC(=O)[C@H](O)[C@@H](NC(=O)OC(C)(C)C)c4ccccc4)C[C@@](O)([C@@H](OC(=O)c4ccccc4)[C@H]21)C3(C)C [Docetaxel] + CC(=O)c1c(C)c2cnc(Nc3ccc(N4CCNCC4)cn3)nc2n(C2CCCC2)c1=O [Palbociclib] (partner 0.5 µM)
- relative viability (ChaGo-K-1; first compound 0.0002 µM): 0.883
- relative viability (ChaGo-K-1; first compound 0.000632 µM): 0.677
- relative viability (ChaGo-K-1; first compound 0.002 µM): 0.418
- relative viability (ChaGo-K-1; first compound 0.006325 µM): 0.313
- relative viability (SK-MES-1; first compound 0.0002 µM): 0.401
- relative viability (SK-MES-1; first compound 0.000632 µM): 0.444
- relative viability (SK-MES-1; first compound 0.002 µM): 0.382
- relative viability (SK-MES-1; first compound 0.006325 µM): 0.303
- relative viability (SK-MES-1; first compound 0.02 µM): 0.176
- relative viability (H3255; first compound 0.0002 µM): 0.323
- relative viability (H3255; first compound 0.000632 µM): 0.304
- relative viability (H3255; first compound 0.002 µM): 0.296
- relative viability (H3255; first compound 0.006325 µM): 0.308
- relative viability (H3255; first compound 0.02 µM): 0.282
- relative viability (COR-L23; first compound 0.0002 µM): 0.299
- relative viability (COR-L23; first compound 0.000632 µM): 0.262
- relative viability (COR-L23; first compound 0.002 µM): 0.142
- relative viability (COR-L23; first compound 0.006325 µM): 0.141
- relative viability (COR-L23; first compound 0.02 µM): 0.108
- relative viability (NCI-H2023; first compound 0.0002 µM): 0.357
- relative viability (NCI-H2023; first compound 0.000632 µM): 0.339
- relative viability (NCI-H2023; first compound 0.002 µM): 0.101
- relative viability (NCI-H2023; first compound 0.006325 µM): 0.0906
- relative viability (NCI-H2023; first compound 0.02 µM): 0.0705
- relative viability (NCI-H2087; first compound 0.0002 µM): 0.218
- relative viability (NCI-H2087; first compound 0.000632 µM): 0.179
- relative viability (NCI-H2087; first compound 0.002 µM): 0.135
- relative viability (NCI-H2087; first compound 0.006325 µM): 0.144
- relative viability (NCI-H2087; first compound 0.02 µM): 0.102
- relative viability (NCI-H838; first compound 0.0002 µM): 0.223
- relative viability (NCI-H838; first compound 0.000632 µM): 0.251
- relative viability (NCI-H838; first compound 0.002 µM): 0.209
- relative viability (NCI-H838; first compound 0.006325 µM): 0.176
- relative viability (NCI-H838; first compound 0.02 µM): 0.133
- relative viability (NCI-H1944; first compound 0.0002 µM): 0.359
- relative viability (NCI-H1944; first compound 0.000632 µM): 0.268
- relative viability (NCI-H1944; first compound 0.002 µM): 0.314
- relative viability (NCI-H1944; first compound 0.006325 µM): 0.22
- relative viability (NCI-H1944; first compound 0.02 µM): 0.14
- relative viability (EMC-BAC-2; first compound 0.0002 µM): 0.511
- relative viability (EMC-BAC-2; first compound 0.000632 µM): 0.536
- relative viability (EMC-BAC-2; first compound 0.002 µM): 0.441
- relative viability (EMC-BAC-2; first compound 0.006325 µM): 0.363
- relative viability (EMC-BAC-2; first compound 0.02 µM): 0.31
- relative viability (LU99A; first compound 0.0002 µM): 0.367
- relative viability (LU99A; first compound 0.000632 µM): 0.36
- relative viability (LU99A; first compound 0.002 µM): 0.265
- relative viability (LU99A; first compound 0.006325 µM): 0.245
- relative viability (LU99A; first compound 0.02 µM): 0.159
- relative viability (HCC-827; first compound 0.0002 µM): 0.508
- relative viability (HCC-827; first compound 0.000632 µM): 0.446
- relative viability (HCC-827; first compound 0.002 µM): 0.375
- relative viability (HCC-827; first compound 0.006325 µM): 0.213
- relative viability (HCC-827; first compound 0.02 µM): 0.197
- relative viability (NCI-H2405; first compound 0.0002 µM): 0.525
- relative viability (NCI-H2405; first compound 0.000632 µM): 0.513
- relative viability (NCI-H2405; first compound 0.002 µM): 0.456
- relative viability (NCI-H2405; first compound 0.006325 µM): 0.401
- relative viability (NCI-H2405; first compound 0.02 µM): 0.29
- relative viability (EPLC-272H; first compound 0.0002 µM): 0.374
- relative viability (EPLC-272H; first compound 0.000632 µM): 0.341
- relative viability (EPLC-272H; first compound 0.002 µM): 0.236
- relative viability (EPLC-272H; first compound 0.006325 µM): 0.204
- relative viability (EPLC-272H; first compound 0.02 µM): 0.148
- relative viability (LCLC-103H; first compound 0.0002 µM): 0.496
- relative viability (LCLC-103H; first compound 0.000632 µM): 0.532
- relative viability (LCLC-103H; first compound 0.002 µM): 0.5
- relative viability (LCLC-103H; first compound 0.006325 µM): 0.598
- relative viability (LCLC-103H; first compound 0.02 µM): 0.57
- relative viability (NCI-H1651; first compound 0.0002 µM): 0.478
- relative viability (NCI-H1651; first compound 0.000632 µM): 0.543
- relative viability (NCI-H1651; first compound 0.002 µM): 0.373
- relative viability (NCI-H1651; first compound 0.006325 µM): 0.212
- relative viability (NCI-H650; first compound 0.0002 µM): 0.34
- relative viability (NCI-H650; first compound 0.000632 µM): 0.305
- relative viability (NCI-H650; first compound 0.002 µM): 0.222
- relative viability (NCI-H650; first compound 0.006325 µM): 0.211
- relative viability (NCI-H650; first compound 0.02 µM): 0.193
- relative viability (HCC-44; first compound 0.0002 µM): 0.904
- relative viability (HCC-44; first compound 0.000632 µM): 1.01
- relative viability (HCC-44; first compound 0.002 µM): 0.968
- relative viability (HCC-44; first compound 0.006325 µM): 0.691
- relative viability (HCC-44; first compound 0.02 µM): 0.632
- relative viability (NCI-H1395; first compound 0.0002 µM): 0.589
- relative viability (NCI-H1395; first compound 0.000632 µM): 0.638
- relative viability (NCI-H1395; first compound 0.002 µM): 0.5
- relative viability (NCI-H1395; first compound 0.006325 µM): 0.42
- relative viability (NCI-H1395; first compound 0.02 µM): 0.274
- relative viability (NCI-H520; first compound 0.0002 µM): 0.192
- relative viability (NCI-H520; first compound 0.000632 µM): 0.253
- relative viability (NCI-H520; first compound 0.002 µM): 0.209
- relative viability (NCI-H520; first compound 0.006325 µM): 0.189
- relative viability (NCI-H520; first compound 0.02 µM): 0.122
- relative viability (NCI-H1793; first compound 0.0002 µM): 0.242
- relative viability (NCI-H1793; first compound 0.000632 µM): 0.358
- relative viability (NCI-H1793; first compound 0.002 µM): 0.347
- relative viability (NCI-H1793; first compound 0.006325 µM): 0.266
- relative viability (NCI-H1793; first compound 0.02 µM): 0.208
- relative viability (NCI-H2085; first compound 0.0002 µM): 0.463
- relative viability (NCI-H2085; first compound 0.000632 µM): 0.551
- relative viability (NCI-H2085; first compound 0.002 µM): 0.539
- relative viability (NCI-H2085; first compound 0.006325 µM): 0.48
- relative viability (NCI-H2085; first compound 0.02 µM): 0.42

— the supplement of paper PMC10307832
